# Reference: ChEMBL document CHEMBL6182906, “Discovery, total synthesis, and biological evaluation of tyrcinnamins as antibacterial agents and tyrosinase activators” (Eur J Med Chem, 2025)
# Activity calls are given as the source filed them. The calls are words filed in the database; no cut-off is given here.
# Experiments:
# Escherichia coli = experiment: Antibacterial activity against Escherichia coli ATCC8739 assessed as bacterial growth inhibition up to 100 uM incubated for 16 hrs by broth microdilution assay; format: functional, organism-based
# Staphylococcus aureus [1] = experiment: Antibacterial activity against Staphylococcus aureus ATCC6538 assessed as bacterial growth inhibition incubated for 16 hrs by broth microdilution assay; format: functional
# Pseudomonas aeruginosa = experiment: Antibacterial activity against Pseudomonas aeruginosa ATCC27853 assessed as bacterial growth inhibition up to 100 uM incubated for 16 hrs by broth microdilution assay; format: functional, organism-based
# [2] = biological target: T1, Mushroom tyrosinase (Agaricus bisporus) (UniProt O42713+Q00024+C7FF04+C7FF05); experiment: Inhibition of mushroom tyrosinase using L-DOPA as substrate up to 1 mM preincubated for 10 mins followed by substrate addition measured after 20 mins by absorbance based assay; format: protein assay; conditions: time 30.0 min
# Bacillus subtilis = experiment: Antibacterial activity against Bacillus subtilis ATCC6633 assessed as bacterial growth inhibition incubated for 16 hrs by broth microdilution assay; format: functional
# L02 [3] = experiment: Induction of apoptosis in human LO2 cells assessed as necrotic cells at 12.5 uM incubated for 48 hrs by Annexin V-FITC/PI staining based flow cytometry (reference value: 1.12 %); format: functional
# HCT-116 = experiment: Cytotoxicity against human HCT-116 cells at 100 uM incubated for 72 hrs by CCK8 assay; format: toxicity, cell-based; conditions: hct-116, 72 h
# [4] = biological target: T1, Mushroom tyrosinase (Agaricus bisporus); experiment: Competitive binding affinity to mushroom tyrosinase at 0.1 mM in presence of 0.25 mM L-DOPA; format: protein assay
# L02 [5] = experiment: Cytotoxicity against human LO2 cells at 100 uM incubated for 72 hrs by CCK8 assay; format: toxicity, cell-based; conditions: l02, 72 h
# Staphylococcus aureus [6] = experiment: Antibacterial activity against Staphylococcus aureus ATCC29213 assessed as bacterial growth inhibition incubated for 16 hrs by broth microdilution assay; format: functional
# [7] = Hemolytic activity against chicken erythrocytes up to 100 uM incubated for 1 hr by absorbance based assay; format: toxicity, cell-based, Gallus gallus, Erythrocyte; conditions: read-out: Activity
# L02 [8] = experiment: Induction of apoptosis in human LO2 cells assessed as viable cells at 100 uM incubated for 48 hrs by Annexin V-FITC/PI staining based flow cytometry (reference value: 98.0 %); format: functional; conditions: read-out: Activity
# [9] = biological target: T1, Mushroom tyrosinase (Agaricus bisporus); experiment: Activation of mushroom tyrosinase using L-DOPA as substrate at 1 mM preincubated for 10 mins followed by substrate addition measured after 20 mins by absorbance based assay; format: protein assay; conditions: filed as activator, time 30.0 min
# L02 [10] = experiment: Induction of apoptosis in human LO2 cells assessed as necrotic cells at 100 uM incubated for 48 hrs by Annexin V-FITC/PI staining based flow cytometry (reference value: 1.12 %); format: functional
# L02 [11] = experiment: Induction of apoptosis in human LO2 cells assessed as late apoptotic cells at 100 uM incubated for 48 hrs by Annexin V-FITC/PI staining based flow cytometry (reference value: 0.044 %); format: functional
# L02 [12] = experiment: Induction of apoptosis in human LO2 cells assessed as early apoptotic cells at 50 uM incubated for 48 hrs by Annexin V-FITC/PI staining based flow cytometry (reference value: 0.85 %); format: functional
# Enterococcus faecalis = experiment: Antibacterial activity against Enterococcus faecalis assessed as bacterial growth inhibition incubated for 16 hrs by broth microdilution assay; format: functional
# [13] = biological target: T1, Mushroom tyrosinase (Agaricus bisporus); experiment: Competitive binding affinity to mushroom tyrosinase at 0.5 to 1 mM in presence of 0.25 mM L-DOPA; format: protein assay; conditions: filed as activator, dose 0.5-1 mM
# L02 [14] = experiment: Induction of apoptosis in human LO2 cells assessed as early apoptotic cells at 100 uM incubated for 48 hrs by Annexin V-FITC/PI staining based flow cytometry (reference value: 0.85 %); format: functional
# [15] = test system: Staphylococcus epidermidis; experiment: Antibacterial activity against Staphylococcus epidermidis assessed as bacterial growth inhibition incubated for 16 hrs by broth microdilution assay; format: functional
# L02 [16] = experiment: Induction of apoptosis in human LO2 cells assessed as early apoptotic cells at 12.5 uM incubated for 48 hrs by Annexin V-FITC/PI staining based flow cytometry (reference value: 0.85 %); format: functional
# L02 [17] = experiment: Induction of apoptosis in human LO2 cells assessed as late apoptotic cells at 12.5 uM incubated for 48 hrs by Annexin V-FITC/PI staining based flow cytometry (reference value: 0.044 %); format: functional
# Staphylococcus aureus [18] = experiment: Antibacterial activity against methicillin-resistant Staphylococcus aureus assessed as bacterial growth inhibition incubated for 16 hrs by broth microdilution assay; format: functional
# L02 [19] = experiment: Induction of apoptosis in human LO2 cells assessed as viable cells at 50 uM incubated for 48 hrs by Annexin V-FITC/PI staining based flow cytometry (reference value: 98.0 %); format: functional; conditions: read-out: Activity
# HaCaT = experiment: Cytotoxicity against human HaCaT cells at 100 uM incubated for 72 hrs by CCK8 assay; format: toxicity, cell-based
# L02 [20] = experiment: Induction of apoptosis in human LO2 cells assessed as viable cells at 12.5 uM incubated for 48 hrs by Annexin V-FITC/PI staining based flow cytometry (reference value: 98.0 %); format: functional; conditions: read-out: Activity
# L02 [21] = experiment: Induction of apoptosis in human LO2 cells assessed as late apoptotic cells at 50 uM incubated for 48 hrs by Annexin V-FITC/PI staining based flow cytometry (reference value: 0.044 %); format: functional
# Enterococcus faecium = experiment: Antibacterial activity against Enterococcus faecium assessed as bacterial growth inhibition incubated for 16 hrs by broth microdilution assay; format: functional
# L02 [22] = experiment: Induction of apoptosis in human LO2 cells assessed as necrotic cells at 50 uM incubated for 48 hrs by Annexin V-FITC/PI staining based flow cytometry (reference value: 1.12 %); format: functional
# Staphylococcus aureus [23] = experiment: Antibacterial activity against Staphylococcus aureus ATCC6538 assessed as bacterial growth inhibition at 100 uM incubated for 12 hrs by spot assay; format: functional, organism-based
# Staphylococcus aureus [24] = experiment: Antibacterial activity against Staphylococcus aureus ATCC6538 assessed as bacterial growth inhibition at 100 uM incubated for 12 hrs by resazurin assay; format: functional, organism-based
# [25] = Hemolytic activity against chicken erythrocytes at 50 uM incubated for 1 hr by absorbance based assay; format: toxicity, cell-based, Gallus gallus, Erythrocyte; conditions: read-out: Activity
compound,measurement,setting,value
COC(=O)[C@H](Cc1ccc(O)cc1)NC(=O)/C=C/c1ccccc1OC,inhibition,Escherichia coli,inactive
same,MIC,Staphylococcus aureus [1],100 µM
same,inhibition,Pseudomonas aeruginosa,inactive
same,inhibition,[2],Active
same,MIC,Bacillus subtilis,100 µM
COC(=O)[C@H](Cc1ccc(O)cc1)NC(=O)/C=C/c1ccccc1Br,inhibition,Escherichia coli,inactive
same,MIC,Staphylococcus aureus [1],100 µM
same,inhibition,Pseudomonas aeruginosa,inactive
same,inhibition,[2],inactive
same,MIC,Bacillus subtilis,100 µM
CCC/C=C\c1ccccc1/C=C/C(=O)N[C@@H](Cc1ccc(O)cc1)C(=O)OC,Activity,L02 [3],1.23%
same,inhibition,Escherichia coli,inactive
same,Activity,HCT-116,Non-toxic
same,Activity,[4],inactive
same,MIC,Staphylococcus aureus [1],12.5 µM
same,Activity,L02 [5],Non-toxic
same,MIC,Staphylococcus aureus [6],20 µM
same,"hemolysis at 1 h, up to 100 µM",[7],< 5%
same,viability at 100 µM,L02 [8],97.7%
same,Emax,[9],> 300%
same,Activity,L02 [10],1.34%
same,Activity,L02 [11],0.034%
same,Activity,L02 [12],0.74%
same,MIC,Enterococcus faecalis,20 µM
same,Activity,[13],Active
same,Activity,L02 [14],0.94%
same,MIC,[15],> 40 µM
same,inhibition,Pseudomonas aeruginosa,inactive
same,inhibition,[2],inactive
same,MIC,Bacillus subtilis,12.5 µM
same,Activity,L02 [16],0.2%
same,Activity,L02 [17],0.041%
same,MIC,Staphylococcus aureus [18],20 µM
same,viability at 50 µM,L02 [19],97.9%
same,Activity,HaCaT,Non-toxic
same,viability at 12.5 µM,L02 [20],98.5%
same,Activity,L02 [21],0.024%
same,MIC,Enterococcus faecium,20 µM
same,Activity,L02 [22],1.33%
CCC/C=C\c1ccccc1/C=C/C(=O)N[C@@H](Cc1ccc(O)cc1)C(=O)O,inhibition,Staphylococcus aureus [23],inactive
same,inhibition,Escherichia coli,inactive
same,MIC,Staphylococcus aureus [1],> 100 µM
same,inhibition,Pseudomonas aeruginosa,inactive
same,inhibition,[2],inactive
same,MIC,Bacillus subtilis,> 100 µM
same,inhibition,Staphylococcus aureus [24],inactive
COC(=O)[C@H](Cc1ccc(O)cc1)NC(=O)/C=C/c1ccccc1C(F)(F)F,inhibition,Escherichia coli,inactive
same,MIC,Staphylococcus aureus [1],100 µM
same,inhibition,Pseudomonas aeruginosa,inactive
same,inhibition,[2],inactive
same,MIC,Bacillus subtilis,> 100 µM
CC1(C)S[C@@H]2[C@H](NC(=O)Cc3ccccc3)C(=O)N2[C@H]1C(=O)O [PENICILLIN G],MIC,Staphylococcus aureus [1],0.05 µM
same,MIC,Bacillus subtilis,10 µM
CCC/C=C\c1ccccc1/C=C/C(=O)N[C@@H](Cc1ccccc1)C(=O)OC,inhibition,Escherichia coli,inactive
same,MIC,Staphylococcus aureus [1],> 100 µM
same,inhibition,Pseudomonas aeruginosa,inactive
same,MIC,Bacillus subtilis,> 100 µM
CN[C@H](CC(C)C)C(=O)N[C@H]1C(=O)N[C@@H](CC(N)=O)C(=O)N[C@H]2C(=O)N[C@H]3C(=O)N[C@H](C(=O)N[C@H](C(=O)O)c4cc(O)cc(O)c4-c4cc3ccc4O)[C@H](O)c3ccc(c(Cl)c3)Oc3cc2cc(c3O[C@@H]2O[C@H](CO)[C@@H](O)[C@H](O)[C@H]2O[C@H]2C[C@](C)(N)[C@H](O)[C@H](C)O2)Oc2ccc(cc2Cl)[C@H]1O [VANCOMYCIN],MIC,Staphylococcus aureus [6],1.4 µM
same,MIC,Enterococcus faecalis,2.8 µM
same,MIC,Staphylococcus aureus [18],2.8 µM
same,MIC,Enterococcus faecium,2.8 µM
CCC/C=C\c1ccccc1/C=C/C(=O)N[C@H](Cc1ccc(O)cc1)C(=O)O,inhibition,Staphylococcus aureus [23],inactive
same,inhibition,Escherichia coli,inactive
same,MIC,Staphylococcus aureus [1],> 100 µM
same,inhibition,Pseudomonas aeruginosa,inactive
same,inhibition,[2],inactive
same,MIC,Bacillus subtilis,> 100 µM
same,inhibition,Staphylococcus aureus [24],inactive
COC(=O)[C@H](Cc1ccc(O)cc1)NC(=O)/C=C/c1ccccc1,inhibition,Escherichia coli,inactive
same,MIC,Staphylococcus aureus [1],> 100 µM
same,inhibition,Pseudomonas aeruginosa,inactive
same,inhibition,[2],inactive
same,MIC,Bacillus subtilis,> 100 µM
COC(=O)[C@H](Cc1ccc(O)cc1)NC(=O)/C=C/c1ccccc1F,inhibition,Escherichia coli,inactive
same,MIC,Staphylococcus aureus [1],> 100 µM
same,inhibition,Pseudomonas aeruginosa,inactive
same,inhibition,[2],inactive
same,MIC,Bacillus subtilis,100 µM
CCC/C=C\c1ccccc1/C=C/C(=O)N[C@@H](Cc1c[nH]c2ccccc12)C(=O)OC,inhibition,Escherichia coli,inactive
same,MIC,Staphylococcus aureus [1],> 100 µM
same,inhibition,Pseudomonas aeruginosa,inactive
same,MIC,Bacillus subtilis,> 100 µM
CCC/C=C\c1ccccc1/C=C/C(=O)O,inhibition,Escherichia coli,inactive
same,MIC,Staphylococcus aureus [1],> 100 µM
same,inhibition,Pseudomonas aeruginosa,inactive
same,MIC,Bacillus subtilis,> 100 µM
COC(=O)[C@H](Cc1ccc(O)cc1)NC(=O)/C=C/c1ccccc1C,inhibition,Escherichia coli,inactive
same,MIC,Staphylococcus aureus [1],> 100 µM
same,Emax,[9],> 300%
same,inhibition,Pseudomonas aeruginosa,inactive
same,inhibition,[2],inactive
same,MIC,Bacillus subtilis,100 µM
CCC/C=C\c1ccccc1/C=C/C(=O)N[C@@H](C)C(=O)OC,inhibition,Escherichia coli,inactive
same,MIC,Staphylococcus aureus [1],> 100 µM
same,inhibition,Pseudomonas aeruginosa,inactive
same,MIC,Bacillus subtilis,100 µM
CCC/C=C\c1ccccc1/C=C/C(=O)N[C@H](Cc1ccc(O)cc1)C(=O)OC,"hemolysis at 1 h, 50 µM",[25],> 5%
same,inhibition,Escherichia coli,inactive
same,Activity,HCT-116,Toxic
same,MIC,Staphylococcus aureus [1],12.5 µM
same,Activity,L02 [5],Toxic
same,Emax,[9],> 300%
same,inhibition,Pseudomonas aeruginosa,inactive
same,inhibition,[2],inactive
same,MIC,Bacillus subtilis,12.5 µM
same,Activity,HaCaT,Toxic
